Source: US20090099062A1 (priority 2007, published 2009)

How the values were obtained:
Type in all cases: cell-based
[1] = tested on: Wnt-mediated gene transcription; assay: Topflash reporter assay in HEK 293 cells; conditions: Homo sapiens, HEK293; HEK 293 cells stimulated with Wnt3a, Topflash luciferase; read-out: EC50, inhibition of Wnt-mediated transcription
Procedure: Topflash reporter assay. HEK 293 cells stably expressing 8× Supertopflash were seeded in quadruplicate at 15,000 cells/well/100 μl of medium in 96 well-plate. […] Cells were lysed in passive lysis buffer (Promega), and luciferase was measured according to Promega's Steady-Glo protocol.

[2] = tested on: SW620; assay: Cell viability (CellTiter-Glo), SW620; conditions: Homo sapiens, SW-620; SW620, 48 hr
Procedure: (§1) Cancer cell growth, viability, and apoptosis assays. HCT116, SW620, SW480, MDA-MB-231 cancer lines were maintained according to ATCC guidelines. For cell growth and viability assays, cells were seeded at 2000 cells/100 μl/well in 96-well plates. Cell number was measured at different time points using CellTiter-Glo® Luminescent Cell Viability Assay (Promega). For apoptosis assays, cells were seeded at 5000 cells/100 μl/well in 96-well plates. Drug was added for 24 hr and Caspase-3 and -7 activities were measured using Apo-ONE® Homogeneous Caspase-3/7 Assay (Promega).

[3] = tested on: SW480; assay: Cell viability (CellTiter-Glo), SW480; conditions: Homo sapiens; SW480, 48 hr
Procedure: as §1

[4] = tested on: MDA-MB-231; assay: Cell viability (CellTiter-Glo), MDA-MB-231; conditions: Homo sapiens; MDA-MB-231, 48 hr
Procedure: as §1

EC50 [1]: < 50 nM
EC50 [2]: < 50 nM
EC50 [3]: < 50 nM
EC50 [4]: < 50 nM
SMILES: Cc1cc(/C=C/c2ccc3cc(N(C)C)ccc3[n+]2C)c(C)n1-c1ccccc1 [pyrvinium, pyrvinium pamoate]
